Results taken from US20260241046A1, “PROSTATE-SPECIFIC MEMBRANE ANTIGEN RECEPTOR-TARGETING RADIOPHARMACEUTICALS AND USES THEREOF” (Nuclidium AG, priority 2024, published 2026).

Target: T1, PSMA-positive malignant lesions (Homo sapiens, UniProt Q04609)
T1 construct: from tissue; host or cells: prostate cancer lesions (bone and nodal metastases, prostate) of eight trial subjects
Assay: Human clinical trial, PET/CT comparison between Pylarify and [^61Cu]Cu-NODAGA-PSMA I&T
Format: in vivo
Description: This is a phase I, single center, non-randomized trial with 6-10 subjects. Each subject will have biopsy-proven prostate cancer visualized on FDA-approved ^18F-piflufolastat PET/CT performed within 3 weeks of trial recruitment. Each subject will receive a single administration of [^61Cu]Cu-NODAGA-PSMA I&T, followed by PET/CT imaging. Safety of [^61Cu]Cu-NODAGA-PSMA I&T will be evaluated by monitoring for unlikely adverse effects.
Subjects will undergo administration of 10 mL of 100-300 MBq (2.7-8.1 mCi) [^61Cu]Cu-NODAGA-PSMA I&T composition intravenously described in Table 20, followed by PET/CT imaging 60 (+/−10) minutes post radiotracer administration.
• Perform and record vital signs. • Place IV catheter. • Obtain blood for whole blood and plasma radioactivity counts prior to radiotracer administration and at 3-5 time points post radiotracer administration, from the following time ranges • a. 15 minutes (+/−10 minutes) • b. 30 minutes (+/−10 minutes) • c. 60 minutes (+/−15 minutes) • d. 120-240 minutes • e. 240-420 minutes • Administer 100-300 MBq ([…]) of [^61Cu]Cu-NODAGA-PSMA I&T composition intravenously. • Perform and record vital signs and assess for adverse reactions 30-60 minutes and 120-240 minutes post radiotracer administration. • Perform PET/CT imaging at 2 or 3 time points post radiotracer administration, from the following time ranges. • a. 60 minutes (+/−15 minutes) • b. 120-240 minutes • c. 240-420 minutes • Perform and record vital signs and assess for adverse reactions 120 (+/−10 minutes) post radiotracer administration. Visit 3—Day after Phone Call • Record any adverse reactions.
For the secondary objective of effectiveness, the number of suspected PSMA-positive malignant lesions will be calculated in both the standard-of-care ^18F-Piflufolastat PET/CT and the experimental [^61Cu]Cu-NODAGA-PSMA I&T PET/CT. The percentage of patients with any suspected PSMA-positive malignant lesions will be determined for each radiotracer. To assess whether the distribution of the number of lesions was higher with ^18F-Piflufolastat PET/CT or [^61Cu]Cu-NODAGA-PSMA I&T, 1-sided Wilcoxon […] tests for paired data will be performed. To account for the small sample size, results with a P value of less than 0.1 will be considered statistically significant.

T1 sequence (Q04609 whole entry): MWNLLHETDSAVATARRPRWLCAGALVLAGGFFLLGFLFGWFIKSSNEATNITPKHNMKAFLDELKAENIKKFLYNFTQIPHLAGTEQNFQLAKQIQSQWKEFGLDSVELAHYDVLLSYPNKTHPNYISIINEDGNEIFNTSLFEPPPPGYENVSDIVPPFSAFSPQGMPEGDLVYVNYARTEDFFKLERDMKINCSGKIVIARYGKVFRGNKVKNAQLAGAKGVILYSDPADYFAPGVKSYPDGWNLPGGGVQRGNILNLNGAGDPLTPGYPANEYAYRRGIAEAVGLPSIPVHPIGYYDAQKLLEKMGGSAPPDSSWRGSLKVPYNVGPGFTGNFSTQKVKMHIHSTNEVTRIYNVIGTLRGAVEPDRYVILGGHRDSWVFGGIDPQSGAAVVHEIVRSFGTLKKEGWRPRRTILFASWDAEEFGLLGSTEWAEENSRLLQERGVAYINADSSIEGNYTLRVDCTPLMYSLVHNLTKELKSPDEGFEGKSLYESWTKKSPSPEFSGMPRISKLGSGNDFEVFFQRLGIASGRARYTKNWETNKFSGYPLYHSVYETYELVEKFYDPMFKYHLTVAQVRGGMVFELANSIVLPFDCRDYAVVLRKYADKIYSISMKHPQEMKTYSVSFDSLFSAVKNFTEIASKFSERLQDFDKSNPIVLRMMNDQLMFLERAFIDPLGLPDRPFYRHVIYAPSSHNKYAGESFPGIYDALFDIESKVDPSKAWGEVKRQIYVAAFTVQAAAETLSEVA

Structure (SMILES): O=C([O-])CN1CCN(CC(=O)[O-])CCN([C@H](CCC(=O)N[C@H](Cc2ccc(O)c(I)c2)C(=O)N[C@H](Cc2ccccc2)C(=O)N[C@H](CCCCNC(=O)CCCCCCC(=O)NCCCC[C@H](NC(=O)N[C@@H](CCC(=O)O)C(=O)O)C(=O)O)C(=O)O)C(=O)O)CC1.[61Cu+2] [[^61Cu]Cu-NODAGA-PSMA I&T]
- Concordance (Subject 1): 100%
- % difference from Pylarify results at 1 hour (Subject 1, 1 hour): (12%)
- New Lesions Detected with [^61Cu]Cu-NODAGA-PSMA I&T (Subject 1, 1 hour): 5
- Tumor-to-Background Ratio with [^61Cu]Cu-NODAGA-PSMA I&T (Subject 1, 1 hour): 59.9
- % difference from Pylarify results at 1 hour (Subject 1, 2 hour): (115%)
- New Lesions Detected with [^61Cu]Cu-NODAGA-PSMA I&T (Subject 1, 2 hour): 7
- Tumor-to-Background Ratio with [^61Cu]Cu-NODAGA-PSMA I&T (Subject 1, 2 hour): 114.5
- % difference from Pylarify results at 1 hour (Subject 1, 4 hour): (154%)
- New Lesions Detected with [^61Cu]Cu-NODAGA-PSMA I&T (Subject 1, 4 hour): 8
- Tumor-to-Background Ratio with [^61Cu]Cu-NODAGA-PSMA I&T (Subject 1, 4 hour): 135.5
- Concordance (Subject 2): 100%
- % difference from Pylarify results at 1 hour (Subject 2, 1 hour): (37%)
- New Lesions Detected with [^61Cu]Cu-NODAGA-PSMA I&T (Subject 2, 1 hour): 0
- Tumor-to-Background Ratio with [^61Cu]Cu-NODAGA-PSMA I&T (Subject 2, 1 hour): 5.3
- % difference from Pylarify results at 1 hour (Subject 2, 2 hour): (−13%)
- New Lesions Detected with [^61Cu]Cu-NODAGA-PSMA I&T (Subject 2, 2 hour): 0
- Tumor-to-Background Ratio with [^61Cu]Cu-NODAGA-PSMA I&T (Subject 2, 2 hour): 3.4
- % difference from Pylarify results at 1 hour (Subject 2, 4 hour): (−43%)
- New Lesions Detected with [^61Cu]Cu-NODAGA-PSMA I&T (Subject 2, 4 hour): 0
- Tumor-to-Background Ratio with [^61Cu]Cu-NODAGA-PSMA I&T (Subject 2, 4 hour): 2.2
- Concordance (Subject 3): 100%
- % difference from Pylarify results at 1 hour (Subject 3, 1 hour): (52%)
- New Lesions Detected with [^61Cu]Cu-NODAGA-PSMA I&T (Subject 3, 1 hour): 1
- Tumor-to-Background Ratio with [^61Cu]Cu-NODAGA-PSMA I&T (Subject 3, 1 hour): 9.3
- % difference from Pylarify results at 1 hour (Subject 3, 2 hour): (9%)
- New Lesions Detected with [^61Cu]Cu-NODAGA-PSMA I&T (Subject 3, 2 hour): 1
- Tumor-to-Background Ratio with [^61Cu]Cu-NODAGA-PSMA I&T (Subject 3, 2 hour): 6.7
- % difference from Pylarify results at 1 hour (Subject 3, 4 hour): (274%)
- New Lesions Detected with [^61Cu]Cu-NODAGA-PSMA I&T (Subject 3, 4 hour): 3
- Tumor-to-Background Ratio with [^61Cu]Cu-NODAGA-PSMA I&T (Subject 3, 4 hour): 23.0
- Concordance (Subject 4): 100%
- % difference from Pylarify results at 1 hour (Subject 4, 1 hour): (64%)
- New Lesions Detected with [^61Cu]Cu-NODAGA-PSMA I&T (Subject 4, 1 hour): 0
- Tumor-to-Background Ratio with [^61Cu]Cu-NODAGA-PSMA I&T (Subject 4, 1 hour): 126.2
- % difference from Pylarify results at 1 hour (Subject 4, 2 hour): (110%)
- New Lesions Detected with [^61Cu]Cu-NODAGA-PSMA I&T (Subject 4, 2 hour): 2
- Tumor-to-Background Ratio with [^61Cu]Cu-NODAGA-PSMA I&T (Subject 4, 2 hour): 161.4
- % difference from Pylarify results at 1 hour (Subject 4, 4 hour): (98%)
- New Lesions Detected with [^61Cu]Cu-NODAGA-PSMA I&T (Subject 4, 4 hour): 10
- Tumor-to-Background Ratio with [^61Cu]Cu-NODAGA-PSMA I&T (Subject 4, 4 hour): 152.8
- Concordance (Subject 5): 100%
- % difference from Pylarify results at 1 hour (Subject 5, 1 hour): (98%)
- New Lesions Detected with [^61Cu]Cu-NODAGA-PSMA I&T (Subject 5, 1 hour): 0
- Tumor-to-Background Ratio with [^61Cu]Cu-NODAGA-PSMA I&T (Subject 5, 1 hour): 53.3
- % difference from Pylarify results at 1 hour (Subject 5, 2 hour): (154%)
- New Lesions Detected with [^61Cu]Cu-NODAGA-PSMA I&T (Subject 5, 2 hour): 0
- Tumor-to-Background Ratio with [^61Cu]Cu-NODAGA-PSMA I&T (Subject 5, 2 hour): 68.3
- % difference from Pylarify results at 1 hour (Subject 5, 4 hour): (160%)
- New Lesions Detected with [^61Cu]Cu-NODAGA-PSMA I&T (Subject 5, 4 hour): 0
- Tumor-to-Background Ratio with [^61Cu]Cu-NODAGA-PSMA I&T (Subject 5, 4 hour): 70.0
- Concordance (Subject 6): 100%
- % difference from Pylarify results at 1 hour (Subject 6, 1 hour): (60%)
- New Lesions Detected with [^61Cu]Cu-NODAGA-PSMA I&T (Subject 6, 1 hour): 0
- Tumor-to-Background Ratio with [^61Cu]Cu-NODAGA-PSMA I&T (Subject 6, 1 hour): 11.3
- % difference from Pylarify results at 1 hour (Subject 6, 2 hour): (126%)
- New Lesions Detected with [^61Cu]Cu-NODAGA-PSMA I&T (Subject 6, 2 hour): 0
- Tumor-to-Background Ratio with [^61Cu]Cu-NODAGA-PSMA I&T (Subject 6, 2 hour): 16.0
- % difference from Pylarify results at 1 hour (Subject 6, 4 hour): (230%)
- New Lesions Detected with [^61Cu]Cu-NODAGA-PSMA I&T (Subject 6, 4 hour): 0
- Tumor-to-Background Ratio with [^61Cu]Cu-NODAGA-PSMA I&T (Subject 6, 4 hour): 23.3
- Concordance (Subject 7): 100%
- % difference from Pylarify results at 1 hour (Subject 7, 1 hour): (45%)
- New Lesions Detected with [^61Cu]Cu-NODAGA-PSMA I&T (Subject 7, 1 hour): 3
- Tumor-to-Background Ratio with [^61Cu]Cu-NODAGA-PSMA I&T (Subject 7, 1 hour): 5.6
- % difference from Pylarify results at 1 hour (Subject 7, 2 hour): (70%)
- New Lesions Detected with [^61Cu]Cu-NODAGA-PSMA I&T (Subject 7, 2 hour): 3
- Tumor-to-Background Ratio with [^61Cu]Cu-NODAGA-PSMA I&T (Subject 7, 2 hour): 6.6
- % difference from Pylarify results at 1 hour (Subject 7, 4 hour): (287%)
- New Lesions Detected with [^61Cu]Cu-NODAGA-PSMA I&T (Subject 7, 4 hour): 5
- Tumor-to-Background Ratio with [^61Cu]Cu-NODAGA-PSMA I&T (Subject 7, 4 hour): 15.0
- Concordance (Subject 8): 100%
- % difference from Pylarify results at 1 hour (Subject 8, 1 hour): (−10%)
- New Lesions Detected with [^61Cu]Cu-NODAGA-PSMA I&T (Subject 8, 1 hour): 0
- Tumor-to-Background Ratio with [^61Cu]Cu-NODAGA-PSMA I&T (Subject 8, 1 hour): 24.2
- % difference from Pylarify results at 1 hour (Subject 8, 2 hour): (29%)
- New Lesions Detected with [^61Cu]Cu-NODAGA-PSMA I&T (Subject 8, 2 hour): 0
- Tumor-to-Background Ratio with [^61Cu]Cu-NODAGA-PSMA I&T (Subject 8, 2 hour): 34.5
- % difference from Pylarify results at 1 hour (Subject 8, 4 hour): (123%)
- New Lesions Detected with [^61Cu]Cu-NODAGA-PSMA I&T (Subject 8, 4 hour): 0
- Tumor-to-Background Ratio with [^61Cu]Cu-NODAGA-PSMA I&T (Subject 8, 4 hour): 59.7
- metastases visualized compared with Pylarify PET/CT (Subject #1): More osseous metastases were visualized
- metastases visualized compared with Pylarify PET/CT (Subject #2): Same number of metastases were observed
- pelvic nodal metastases seen on PET/CT (Subject #3, 4 hours): 5
- metastases visualized compared with Pylarify PET/CT (Subject #4): More osseous metastases were observed
- metastases visualized compared with Pylarify PET/CT (Subject #5): Equal number of osseous metastases were observed
- metastases visualized compared with Pylarify PET/CT (Subject #6): One avid 0.4 cm left pelvic sidewall lymph node seen on both
- metastases visualized compared with Pylarify PET/CT (Subject #7): More osseous metastases were detected
- metastases visualized compared with Pylarify PET/CT (Subject #8): Solitary avid osseous metastasis were observed in both exams
- detection rate of metastatic lesions compared with Pylarify (eight subjects): higher detection rate of metastatic lesions
- higher tumor-to-background ratio than Pylarify, on average (eight subjects): 90%
